Data reported in patent US20160311791A1, “NOVEL TRICYCLIC CALCIUM SENSING RECEPTOR ANTOGONISTS FOR THE TREATMENT OF OSTEOPOSOSIS” (MERCK SHARP & DOHME CORP., priority 2013, published 2016).

Target: T1, human CaSR (Homo sapiens, UniProt P41180)
T1 sequence (P41180 20-1078): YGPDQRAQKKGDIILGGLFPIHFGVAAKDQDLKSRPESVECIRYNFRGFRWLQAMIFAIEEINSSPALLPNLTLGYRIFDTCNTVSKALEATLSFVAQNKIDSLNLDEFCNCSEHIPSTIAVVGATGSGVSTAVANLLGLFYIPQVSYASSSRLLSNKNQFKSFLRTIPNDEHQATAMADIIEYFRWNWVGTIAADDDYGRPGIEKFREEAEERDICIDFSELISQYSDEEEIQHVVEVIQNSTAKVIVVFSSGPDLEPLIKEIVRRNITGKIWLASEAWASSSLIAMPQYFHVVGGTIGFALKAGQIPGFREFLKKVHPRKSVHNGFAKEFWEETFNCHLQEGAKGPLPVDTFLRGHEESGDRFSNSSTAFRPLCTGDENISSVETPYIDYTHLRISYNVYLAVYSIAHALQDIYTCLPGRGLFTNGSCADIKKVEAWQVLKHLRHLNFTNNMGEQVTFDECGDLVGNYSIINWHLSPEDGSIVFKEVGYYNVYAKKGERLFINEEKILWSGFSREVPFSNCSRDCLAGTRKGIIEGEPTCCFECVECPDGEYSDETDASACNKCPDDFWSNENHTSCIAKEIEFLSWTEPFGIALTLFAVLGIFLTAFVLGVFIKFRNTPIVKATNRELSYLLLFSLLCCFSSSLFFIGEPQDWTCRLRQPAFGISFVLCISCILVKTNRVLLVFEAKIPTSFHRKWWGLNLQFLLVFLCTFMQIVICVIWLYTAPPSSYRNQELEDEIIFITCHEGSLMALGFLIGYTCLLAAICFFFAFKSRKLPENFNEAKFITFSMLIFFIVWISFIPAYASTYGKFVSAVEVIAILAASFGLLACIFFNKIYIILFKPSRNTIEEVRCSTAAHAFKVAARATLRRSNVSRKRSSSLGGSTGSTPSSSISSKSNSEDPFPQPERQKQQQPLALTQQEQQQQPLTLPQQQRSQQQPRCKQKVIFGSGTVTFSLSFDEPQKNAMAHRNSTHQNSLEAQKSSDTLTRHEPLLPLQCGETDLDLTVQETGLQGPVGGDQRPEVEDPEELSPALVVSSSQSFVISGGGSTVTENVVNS
Assay: CaSR FLIPR assay (calcilytic activity)
Assay type: cell-based
Set-up: expressed in transfected cells
Details: HEK293 cells stably expressing human recombinant CaSR; 1 mM CaCl2 agonist; Tables 1-24; read-out: FLIPR ASSAY IC50
Method: Procedures for CaSR FLIPR Assay
Calcilytic activity of the compound is measured in HEK293 cells stably expressing human recombinant CaSR (HEK-CaSR) using a FLIPR^TETRA device (Molecular Devices, Sunnyvale, Calif.) according to the manufacturer's directions. […] On the day of the assay, one vial of FLIPR Calcium 4 Assay Kit reagent Component A was equilibrated to room temperature. The content of the Component A vial was diluted by adding 10 ml dilution buffer (2×loading dye). The sample was mixed by vortexing (1-2 minutes) until the contents of the vial dissolved. The Component A vial mixture was diluted with 10 ml dilution buffer. Media was aspirated from the cells and 80 μl of loading buffer was added to each well. Plates were incubated for 1 hour at 37° C. and then placed at room temperature for 10 minutes. A two-stage method of generating 10-point serial dilutions was used. Compound was serially diluted in 100% DMSO (10 point, 3-fold dilution of each compound from 2 mM in 100% DMSO). 3 μl of serially diluted compound was transferred into a second assay microplate that contained 97 μl of TETRA dilution buffer (20 mM HEPES pH7.4, 1×HBSS without Ca and Mg, 0.4 mM CaCl2, 0.4 mM MgSO4, 0.5 mM MgCl2) to create the intermediate dilution plate. After reading the base line, the compounds in 0.5% DMSO in dilution buffer were added to their respective wells as 20 μl aliquots at 6×the final drug concentration. The fluorescence signals were then read. Subsequently, 20 μl of 3.6 mM of CaCl2 agonist (1 mM final concentration) was added to each well. For background, 20 μl of TETRA dilution buffer was added instead. The protocol consisted of a pre-addition read of 10 frames (10×1 frame/sec), a post 1st addition read of 100 frames (60×1 frame/sec, 40×1 frame/3 sec), pause 3 min, a post 2nd addition read of 100 frames (60×1 frame/sec, 40×1 frame/3 sec) on a FLIPR^TETRA Plate Reader.

SMILES	IC50 [nM]
C[C@@H](OC[C@H](O)CNC(C)(C)Cc1ccc([S+](C)[O-])c(F)c1)c1cccc2c1O[C@@H]1[C@@H](C(=O)O)[C@H]21 (stereo partly shown) [Example 1-18]	> 10000
C[C@@H](OC[C@H](O)CNC(C)(C)COCc1ccccc1)c1cccc2c1O[C@H]1[C@H](C(=O)O)[C@@H]21 [Example 2-5]	4220
COc1ccc(CC(C)(C)NC[C@@H](O)CO[C@H](C)c2ccc(C)c3c2[C@@H]2[C@H](O3)[C@H]2C(=O)O)c(F)c1 [Example 8-14]	30
Cc1ccc(CC(C)(C)NC[C@@H](O)CO[C@H](C)c2ccc(C)c3c2[C@@H]2[C@H](O3)[C@H]2C(=O)O)cc1F [Example 8-4]	21
C[C@@H](OC[C@H](O)CNC(C)(C)Cc1ccc2ccccc2c1)c1cccc2c1C[C@@H]1[C@@H](C(=O)O)[C@H]21 [Example 14-1]	270
CSc1ccc(CC(C)(C)NC[C@@H](O)CO[C@H](C)c2cccc3c2[C@@H]2[C@H](O3)[C@H]2C(=O)O)cc1 [Example 5-13]	72
Cc1ccc([C@@H](C)OC[C@H](O)CNC(C)(C)CC2Cc3ccccc3C2)c2c1O[C@@H]1[C@@H](C(=O)O)[C@H]21 [Example 8-3]	20
Cc1ccc(CC(C)(C)NC[C@@H](O)CO[C@H](C)c2cccc3c2[C@@H]2[C@H](O3)[C@H]2C(=O)O)cc1C [Example 5-5]	26
Cc1ccc([C@@H](C)OC[C@H](O)CN2CCCC2Cc2ccccc2)c2c1O[C@@H]1[C@@H](C(=O)O)[C@H]21 (stereo partly shown) [Example 8-8]	489
CC(C)(Cc1ccc2ccccc2c1)NC[C@@H](O)COc1ccc2c(c1)C1C(O2)C1C(=O)O (stereo partly shown) [Example 22-1]	3550
C[C@@H](OC[C@H](O)CNC(C)(C)Cc1ccc2ccccc2c1)c1cccc2c1C[C@H]1[C@H](C(=O)O)[C@@H]21 [Example 14-2]	150
C[C@@H](OC[C@H](O)CNC(C)(C)Cc1ccc2occc2c1)c1cccc2c1[C@@H]1[C@H](O2)[C@H]1C(=O)O [Example 5-6]	137
C[C@@H](OC[C@H](O)CNC(C)(C)Cc1ccc(Cl)cc1F)c1cccc2c1O[C@H]1[C@H](C(=O)O)[C@@H]21 [Example 2-6]	730
COc1ccc(CC(C)(C)NC[C@@H](O)CO[C@H](C)c2c(Cl)cc(C)c3c2[C@@H]2[C@H](O3)[C@H]2C(=O)O)c(F)c1 [Example 16-5]	24
Cc1ccc([C@@H](C)OC[C@H](O)CNC(C)(C)Cc2ccc3occc3c2)c2c1O[C@@H]1[C@@H](C(=O)O)[C@H]21 [Example 8-7]	42
C[C@@H](OC[C@H](O)CNC(C)(C)CCSc1ccccc1)c1cccc2c1O[C@@H]1[C@@H](C(=O)O)[C@H]21 [Example 1-20]	330

SMILES	IC50 [nM]
CSc1ccc(CC(C)(C)NC[C@@H](O)CO[C@H](C)c2cccc3c2O[C@@H]2[C@@H](C(=O)O)[C@H]32)cc1Cl [Example 1-21]	86
C[C@@H](OC[C@H](O)CNC(C)(C)Cc1ccc(Cl)c(F)c1)c1cccc2c1[C@@H]1[C@H](O2)[C@H]1C(=O)O [Example 5-2]	32
C[C@@H](OC[C@H](O)CNC(C)(C)Cc1ccc2c(c1)OCO2)c1cccc2c1[C@@H]1[C@H](O2)[C@H]1C(=O)O [Example 5-8]	160
C[C@@H](OC[C@H](O)CNC(C)(C)Cc1ccc2ccccc2c1)c1ccc(F)c2c1C1C(O2)C1C(=O)O (stereo partly shown) [Example 17-1]	26
C[C@@H](OC[C@H](O)CNC(C)(C)Cc1ccc2sccc2c1)c1cccc2c1[C@@H]1[C@H](O2)[C@H]1C(=O)O [Example 5-9]	23
CSc1ccc(CC(C)(C)NC[C@@H](O)CO[C@H](C)c2ccc(C)c3c2[C@@H]2[C@H](O3)[C@H]2C(=O)O)cc1Cl [Example 8-33]	30
COc1ccc(CC(C)(C)NC[C@@H](O)CO[C@H](C)c2cccc3c2[C@@H]2[C@H](O3)[C@H]2C(=O)O)c(Cl)c1 [Example 5-16]	38
C[C@@H](OC[C@H](O)CNC(C)(C)C(=O)N1CCc2ccccc2C1)c1cccc2c1O[C@H]1[C@H](C(=O)O)[C@@H]21 [Example 2-7]	≥ 10000
Cc1ccc([C@@H](C)OC[C@H](O)CNC(C)(C)Cc2ccc3c(c2)CCC3)c2c1O[C@@H]1[C@@H](C(=O)O)[C@H]21 [Example 8-10]	15
C[C@@H](OC[C@H](O)CNC(C)(C)Cc1ccc2ccccc2c1)c1cccc2c1[C@@H]1[C@H](O2)[C@H]1C(=O)NS(=O)(=O)C1(C)CC1 [Example 6-1]	30
COc1ccc(CC(C)(C)NC[C@@H](O)CO[C@H](C)c2cccc3c2O[C@@H]2[C@@H](C(=O)O)[C@H]32)c(Cl)c1 [Example 1-19]	170
Cc1ccc([C@@H](C)OC[C@H](O)CNC(C)(C)CC2Cc3ccccc3C2)c2c1O[C@H]1[C@H](C(=O)O)[C@@H]21 [Example 9-3]	46
Cc1ccc([C@@H](C)OC[C@H](O)CNC(C)(C)Cc2cc3ccccc3s2)c2c1O[C@@H]1[C@@H](C(=O)O)[C@H]21 [Example 8-6]	96
Cc1ccc([C@@H](C)OC[C@H](O)CNC(C)(C)Cc2ccc(F)c(F)c2)c2c1O[C@@H]1[C@@H](C(=O)O)[C@H]21 [Example 8-19]	138
Cc1ccc([C@@H](C)OC[C@H](O)CNC(C)(C)Cc2c(F)cc(F)cc2F)c2c1O[C@@H]1[C@@H](C(=O)O)[C@H]21 [Example 8-22]	210
